Patent US11420947B2, “(S)-n-hydroxy-2-(2-(4-methoxyphenyl)butanamido)thiazole-5-carboxamide and pharmaceutically acceptable salts thereof” (TRANSLATIONAL DRUG DEVELOPMENT, LLC, priority 2018, dated 2022)

What was measured:
Test in all cases: CellTiter-Glo cell viability assay
Assay type in all cases: cell-based
Panc-1 = details: for IC50: Homo sapiens, Panc-1, PANCREAS, Pancreatic, 72 hours
Method: (§1) Cell viability in the presence of varying concentrations of the above listed compounds at different time points was used to assess cytotoxicity and the effect of the compounds on cell proliferation.
(§2) Cell viability was measured by the CellTiter-Glo® cell viability assay from Promega (Madison, Wis.). The CellTiter-Glo® Luminescent Cell Viability Assay is a homogeneous method to determine the number of viable cells in culture based on quantitation of the ATP present, which signals the presence of metabolically active cells. Following treatment, CellTiter-Glo® is added to treatment wells and incubated at 37° C. luminescence values were measured at using a Molecular Devices Spectramax microplate reader
(§3) Cells were grown to 70% confluency, trypsinized, counted, and seeded in 96 well flat-bottom plates at a final concentration of 2.5×10^3-5×10^3 cells/well (Day 0). Cells were allowed to incubate in growth media for 24 hours. Treatment with the test agents or standard agents began on Day 1 and continued for 72 hours. At the 72-hour timepoint, treatment containing media was removed. Viable cell numbers are quantified by the CellTiter-Glo® cell viability assay as described above. Results from these studies were used to calculate an IC50 value (concentration of drug that inhibits cell growth by 50 percent of control) for each compound.
(§4) For single agent and combination studies, data from each experiment was collected and expressed as % Cell Growth using the following calculation: % Cell Growth=(ftest/fvehicle)×100
(§5) Where test is the fluorescence of the tested sample, and fvehicle is the fluorescence of the vehicle in which the drug is dissolved. Dose response graphs and IC50 values were generated using Prism 6 software (GraphPad) using the following equation: Y=(Top-Bottom)/(1+10^((logIC^50^-X)-HillSlope))

RPMI-8226 = details: for IC50: Homo sapiens, RPMI-8226, HEMATOPIETIC, MM, 72 hours
Method: as §1, §2, §3, §4, §5

Hec-1A = details: for IC50: Homo sapiens, Hec-1A, ENDOMETRIAL, 72 hours
Method: as §1, §2, §3, §4, §5

BxPC-3 = details: for IC50: Homo sapiens, BxPC-3, PANCREAS, Pancreatic, 72 hours
Method: as §1, §2, §3, §4, §5

MDA-MB-468 = details: for IC50: Homo sapiens, MDA-MB-468, BREAST, TNBC, 72 hours
Method: as §1, §2, §3, §4, §5

MM1.S = details: for IC50: Homo sapiens, MM1.S, HEMATOPIETIC, MM, 72 hours
Method: as §1, §2, §3, §4, §5

Huh-7-luc = details: for IC50: Huh-7-luc, LIVER, HCC, 72 hours
Method: as §1, §2, §3, §4, §5

ACHN = details: for IC50: Homo sapiens, ACHN, RENAL, RCC, 72 hours
Method: as §1, §2, §3, §4, §5

Capan-2 = details: for IC50: Homo sapiens, Capan-2, PANCREAS, Pancreatic, 72 hours
Method: as §1, §2, §3, §4, §5

A375 = details: for IC50: Homo sapiens, A-375, A375, MELANOMA, Malignant Melanoma, 72 hours
Method: as §1, §2, §3, §4, §5

SUM149PT = details: for IC50: Homo sapiens, SUM149PT, BREAST, IBC, 72 hours
Method: as §1, §2, §3, §4, §5

Cal-27 = details: for IC50: Homo sapiens, Cal-27, H&N SQUAMOUS CELL, Tongue, 72 hours
Method: as §1, §2, §3, §4, §5

MCF7 = details: for IC50: Homo sapiens, MCF7, BREAST, ER + BCC, 72 hours
Method: as §1, §2, §3, §4, §5

AN3CA = details: for IC50: Homo sapiens, AN3-CA, AN3CA, ENDOMETRIAL, 72 hours
Method: as §1, §2, §3, §4, §5

RXF-393 = details: for IC50: Homo sapiens, RXF-393, RENAL, RCC, 72 hours
Method: as §1, §2, §3, §4, §5

BT474 = details: for IC50: Homo sapiens, BT-474, BT474, BREAST, Ductal Carcinoma, 72 hours
Method: as §1, §2, §3, §4, §5

MDA-MB-231 = details: for IC50: Homo sapiens, MDA-MB-231, BREAST, TNBC, 72 hours
Method: as §1, §2, §3, §4, §5

LK-2 = details: for IC50: Homo sapiens, LK-2, LUNG, Carcinoma, 72 hours
Method: as §1, §2, §3, §4, §5

BT-20 = details: for IC50: Homo sapiens, BT-20, BREAST, Carcinoma, 72 hours
Method: as §1, §2, §3, §4, §5

DOHH-2 = details: for IC50: Homo sapiens, DOHH-2, HEMATOPIETIC, Lymphoma, 72 hours
Method: as §1, §2, §3, §4, §5

H1975 = details: for IC50: Homo sapiens, NCI-H1975, H1975, LUNG, NSCLC, 72 hours
Method: as §1, §2, §3, §4, §5

H23 = details: for IC50: Homo sapiens, NCI-H23, H23, LUNG, NSCLC, 72 hours
Method: as §1, §2, §3, §4, §5

SKUT-1 = details: for IC50: Homo sapiens, SK-UT-1, SKUT-1, ENDOMETRIAL, Uterine, 72 hours
Method: as §1, §2, §3, §4, §5

K562 = details: for IC50: Homo sapiens, K562, HEMATOPIETIC, CML, 72 hours
Method: as §1, §2, §3, §4, §5

KMM-1 = details: for IC50: KMM-1, HEMATOPIETIC, MM, 72 hours
Method: as §1, §2, §3, §4, §5

## CCC(C(=O)Nc1ncc(C(=O)NO)s1)c1ccc(OC)cc1 (racemic) [#1, N-hydroxy-2-(2-(4-methoxyphenyl)butanamido)thiazole-5-carboxamide]
Panc-1
  IC50: 631 nM
RPMI-8226
  IC50: 31 nM
Hec-1A
  IC50: 56 nM
BxPC-3
  IC50: 251 nM
MDA-MB-468
  IC50: 68 nM
MM1.S
  IC50: 33 nM
Huh-7-luc
  IC50: 185 nM
ACHN
  IC50: 229 nM
Capan-2
  IC50: 363 nM
A375
  IC50: 269 nM
SUM149PT
  IC50: 191 nM
Cal-27
  IC50: 215 nM
MCF7
  IC50: 39 nM
AN3CA
  IC50: 66 nM
RXF-393
  IC50: 398 nM
BT474
  IC50: 1000 nM
MDA-MB-231
  IC50: 113 nM
LK-2
  IC50: 196 nM
BT-20
  IC50: 236 nM
DOHH-2
  IC50: 16 nM
H1975
  IC50: 114 nM
H23
  IC50: 76 nM
SKUT-1
  IC50: 229 nM
K562
  IC50: 145 nM
KMM-1
  IC50: 20 nM

## CC[C@H](C(=O)Nc1ncc(C(=O)NO)s1)c1ccc(OC)cc1 [#1a, (S)—N-hydroxy-2-(2-(4-methoxyphenyl)butanamido)thiazole-5-carboxamide]
Panc-1
  IC50: 302 nM
Panc-1; ratio of IC50, Panc-1
  #1/#1a: 2.09
  #1b/#1a: 8.85
RPMI-8226
  IC50: 14 nM
RPMI-8226; ratio of IC50, RPMI-8226
  #1/#1a: 2.21
  #1b/#1a: 9.21
Hec-1A
  IC50: 37 nM
Hec-1A; ratio of IC50, Hec-1A
  #1/#1a: 1.51
  #1b/#1a: 8.35
BxPC-3
  IC50: 174 nM
BxPC-3; ratio of IC50, BxPC-3
  #1/#1a: 1.44
  #1b/#1a: 6.3
MDA-MB-468
  IC50: 60 nM
MDA-MB-468; ratio of IC50, MDA-MB-468
  #1/#1a: 1.13
  #1b/#1a: 9.17
MM1.S
  IC50: 12 nM
MM1.S; ratio of IC50, MM1.S
  #1/#1a: 2.75
  #1b/#1a: 5.92
Huh-7-luc
  IC50: 68 nM
Huh-7-luc; ratio of IC50, Huh-7-luc
  #1/#1a: 2.72
  #1b/#1a: 7.25
ACHN
  IC50: 78 nM
ACHN; ratio of IC50, ACHN
  #1/#1a: 2.94
  #1b/#1a: 9.44
Capan-2
  IC50: 136 nM
Capan-2; ratio of IC50, Capan-2
  #1/#1a: 2.67
  #1b/#1a: 7.13
A375
  IC50: 32 nM
A375; ratio of IC50, A375
  #1/#1a: 8.41
  #1b/#1a: 20.34
SUM149PT
  IC50: 74 nM
SUM149PT; ratio of IC50, SUM149PT
  #1/#1a: 2.58
  #1b/#1a: 8.27
Cal-27
  IC50: 45 nM
Cal-27; ratio of IC50, Cal-27
  #1/#1a: 4.78
  #1b/#1a: 10.33
MCF7
  IC50: 21 nM
MCF7; ratio of IC50, MCF7
  #1/#1a: 1.86
  #1b/#1a: 7.52
AN3CA
  IC50: 47 nM
AN3CA; ratio of IC50, AN3CA
  #1/#1a: 1.4
  #1b/#1a: 4.87
RXF-393
  IC50: 113 nM
RXF-393; ratio of IC50, RXF-393
  #1/#1a: 3.52
  #1b/#1a: 7.82
BT474
  IC50: 145 nM
BT474; ratio of IC50, BT474
  #1/#1a: 6.9
  #1b/#1a: 20.83
MDA-MB-231
  IC50: 62 nM
MDA-MB-231; ratio of IC50, MDA-MB-231
  #1/#1a: 1.82
  #1b/#1a: 10.42
LK-2
  IC50: 40 nM
LK-2; ratio of IC50, LK-2
  #1/#1a: 4.9
  #1b/#1a: 9.95
BT-20
  IC50: 93 nM
BT-20; ratio of IC50, BT-20
  #1/#1a: 2.54
  #1b/#1a: 8.16
DOHH-2
  IC50: 17 nM
DOHH-2; ratio of IC50, DOHH-2
  #1/#1a: 0.94
  #1b/#1a: 7.94
H1975
  IC50: 40 nM
H1975; ratio of IC50, H1975
  #1/#1a: 2.85
  #1b/#1a: 9.95
H23
  IC50: 47 nM
H23; ratio of IC50, H23
  #1/#1a: 1.62
  #1b/#1a: 9.02
SKUT-1
  IC50: 215 nM
SKUT-1; ratio of IC50, SKUT-1
  #1/#1a: 1.07
  #1b/#1a: 5.86
K562
  IC50: 78 nM
K562; ratio of IC50, K562
  #1/#1a: 1.86
  #1b/#1a: 5.1
KMM-1
  IC50: 19 nM
KMM-1; ratio of IC50, KMM-1
  #1/#1a: 1.05
  #1b/#1a: 5.53

## CC[C@@H](C(=O)Nc1ncc(C(=O)NO)s1)c1ccc(OC)cc1 [#1b, (R)—N-hydroxy-2-(2-(4-methoxyphenyl)butanamido)thiazole-5-carboxamide]
Panc-1
  IC50: 2670 nM
RPMI-8226
  IC50: 129 nM
Hec-1A
  IC50: 309 nM
BxPC-3
  IC50: 1100 nM
MDA-MB-468
  IC50: 550 nM
MM1.S
  IC50: 71 nM
Huh-7-luc
  IC50: 493 nM
ACHN
  IC50: 736 nM
Capan-2
  IC50: 970 nM
A375
  IC50: 651 nM
SUM149PT
  IC50: 612 nM
Cal-27
  IC50: 465 nM
MCF7
  IC50: 158 nM
AN3CA
  IC50: 229 nM
RXF-393
  IC50: 884 nM
BT474
  IC50: 3020 nM
MDA-MB-231
  IC50: 646 nM
LK-2
  IC50: 398 nM
BT-20
  IC50: 759 nM
DOHH-2
  IC50: 135 nM
H1975
  IC50: 398 nM
H23
  IC50: 424 nM
SKUT-1
  IC50: 1260 nM
K562
  IC50: 398 nM
KMM-1
  IC50: 105 nM
